Measurements: US10155722B2, “Antitumor compound targeting IDH2 mutation and method of use thereof” (CHIA TAI TIANQING PHARMACEUTICAL GROUP CO., LTD., priority 2015, dated 2018)
pIC50: −log10 of the molar value. Like-named read-outs stand apart in the source and are kept apart here. Values belong to the compound of their own block, whether it stands above or below them.

How the values were obtained:
[1] = target: IDH2 (R172K, 40-end) (Homo sapiens (Human), UniProt P48735, R172K); assay: IDH2 (R172K, 40-end) inhibitory activity, NADPH depletion with diaphorase/resazurin readout; assay type: biochemical; details: 80 nM enzyme, 40 μM NADPH, 4 mM α-KG
IDH2 (R172K, 40-end), sequence (P48735 40-452 R172K): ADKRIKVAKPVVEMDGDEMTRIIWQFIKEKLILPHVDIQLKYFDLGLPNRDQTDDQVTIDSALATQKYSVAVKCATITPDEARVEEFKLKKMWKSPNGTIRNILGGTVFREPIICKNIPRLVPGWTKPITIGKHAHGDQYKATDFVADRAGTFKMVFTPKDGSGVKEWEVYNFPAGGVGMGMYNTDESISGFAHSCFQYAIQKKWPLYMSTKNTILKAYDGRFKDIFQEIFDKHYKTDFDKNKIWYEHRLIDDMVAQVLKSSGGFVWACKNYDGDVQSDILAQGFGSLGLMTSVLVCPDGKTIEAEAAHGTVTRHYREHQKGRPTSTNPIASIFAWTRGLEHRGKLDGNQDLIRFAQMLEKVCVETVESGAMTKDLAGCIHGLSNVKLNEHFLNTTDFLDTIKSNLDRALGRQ
Description: The inhibitory activity of a compound against IDH2 (R172K, 40-end) was determined by the decrease of a helper factor NADPH. The test compound was pre-incubated with an enzyme and NADPH, and then a reaction was initiated by the addition of a-KG, and performed for 120 minutes under a linear condition. Then, the reaction was terminated by the addition of diaphorase (lipoamide dehydrogenase) and the corresponding substrate resazurin. Diaphorase terminated the IDH2m reaction by decreasing the available helper factor NADPH, which oxidized NADPH to NADP, and reduced resazurin to highly fluorescent resorufin. The amount of remaining helper factor NADPH after a specific reaction time was quantified via an easily detectable fluorophore. Specifically, 2.5 μl of a 3-fold gradient diluted test compound was added to a 384-well plate, and then 5 μl of a reaction buffer (20 mM Tris-HCl, PH7.5; 150 mM NaCl; 10 mM MgC12; 10 mM MnCl2; 0.4 mg/ml BSA and 2 mM DTT) containing 80 nM IDH2 (R172K, 40-end) and 40 μM NADPH was added. Then, the resulting test mixture was incubated for 120 minutes at a temperature of 23° C., and then 2.5 μl of the reaction buffer containing 4 mM α-KG was added to initiate the reaction. After incubating for 120 minutes at room temperature, 5 μl of a termination mixture (0.4 U/ml diaphorase and 40 μM resazurin) prepared with the reaction buffer was added to convert resazurin to resorufin to determine the remaining NADPH. After incubating for 10 minutes at a temperature of 23° C., a fluorescence value was determined through Flexstation 3 at Ex535/Em595.

[2] = system: glioma cells; details: oral administration to mice with a transplanted tumour; cited from earlier work
[3] = system: glioma cells; details: treatment of cell cultures; cited from earlier work
[4] = system: glioma cells carrying the IDH1 mutant; details: cited from earlier work
[5] = system: cells carrying the most common IDH1 mutant; details: cited from earlier work
[6] = Pharmacokinetics parameters in rats after intragastric administration; assay type: in vivo; details: for AUC(0-inf) / Cmax / Tmax / half-life: rat, po, male rats, intragastric, single dose 5 mg/kg, plasma; for half-life (in words) / metabolism in vivo (in words) / plasma concentration compared with AG-6780 at the same dose: rats, 5 mg/kg intragastric
Description: The pharmacokinetic parameters of compounds of the present application were determined by using the following method.
Healthy male adult rats (7-9 weeks old) were used in this study. Each group of animals (3 male rats) was intragastrically administered once at a single dose of 5 mg/kg with 10% DMSO+70% PEG400+20% NS as adjuvants. The animals in the intragastric administration group were fasted overnight before this study. The fasting time period was from 10 hours before administration to 4 hours after administration.
Blood samples were taken at 0.25, 0.5, 1, 2, 4, 6, 8 and 24 h after administration. The animals were anesthetized with isoflurane using an animal anesthesia machine, and then 0.3 mL whole blood samples were taken from the fundus venous plexus. The blood samples were placed in heparin anticoagulant tubes, and centrifuged for 5 min at 4° C. and 4000 rpm. The resulting plasmas were transferred to centrifuge tubes, and stored at −80° C. until analysis.
Verified LC-MS/MS method was used to analyze the plasma samples. Plasma concentration-time data of animals were analyzed using WinNonlin (Professional Edition, version 6.3; Pharsight Company) software. The non-compartmental model was introduced for concentration analysis.

[7] = system: leukemia cells carrying the IDH2 mutant; details: cited from earlier work
[8] = system: cells carrying the most common IDH2 mutant; details: cited from earlier work

SMILES: O=C(Nc1cccc(C(F)(F)F)c1)Nc1cc(C(F)(F)C(=O)NC2CC2)ccc1-c1ccccc1 [Example 12, N-cyclopropyl-2,2-difluoro-2-(2-(3-(3-(trifluoromethyl)phenyl)ureido)-[1,1′-biphenyl]-4-yl)acetamide]
pIC50 [1]: 7.27

SMILES: CCC(C(=O)NC1CC1)c1ccc(-c2ccsc2)c(NC(=O)Nc2cccc(C(F)(F)F)c2)c1 (centres unmarked) [Example 20, N-cyclopropyl-2-(4-(thiophen-3-yl)-3-(3-(3-(trifluoromethyl)phenyl)ureido)phenyl) butanamide]
pIC50 [1]: 6.44

SMILES: NC(C(=O)NC1CC1)c1ccc(-c2ccsc2)c(NC(=O)Nc2cccc(C(F)(F)F)c2)c1 (centres unmarked) [Example 21, 2-Amino-N-cyclopropyl-2-(4-(thiophen-3-yl)-3-(3-(3-(trifluoromethyl)phenyl)ureido)phenyl)acetamide]
pIC50 [1]: 6.21

SMILES: O=C(Nc1cccc(C(F)(F)F)c1)Nc1cc(C2(C(=O)NC3CC3)CCC2)ccc1-c1ccsc1 [Example 19, N-cyclopropyl-1-(4-(thiophen-3-yl)-3-(3-(3-(trifluoromethyl)phenyl)ureido)phenyl) cyclobutanecarboxamide]
pIC50 [1]: 7.06

SMILES: O=C(Nc1cccc(C(F)(F)F)c1)Nc1cc(C(F)(F)C(=O)NCC(F)(F)F)ccc1-c1ccsc1 [Example 2]
pIC50 [1]: 7.34

SMILES: Cc1ccccc1C(C(=O)NC1CCCCC1)N(C(=O)Cn1ccnc1C)c1cccc(F)c1 (centres unmarked) [AGI-5198]
growth rate of glioma cells [2]: inhibit the growth rate
growth rate of glioma cells [3]: inhibit the growth rate
expression of mature markers [4]: enhanced expression of mature markers
generation of 2-HG [5]: inhibit the generation of 2-HG

SMILES: O=C(Nc1cccc(C(F)(F)F)c1)Nc1cc(S(=O)(=O)NC2CC2)ccc1-c1ccsc1 [AGI-6780, reference compound]
AUC(0-inf) [6]: 559 ng·h/mL
Cmax [6]: 191 ng/mL
Tmax [6]: 2.83 h
half-life [6]: 1.49 h
expression of mature markers [7]: enhanced expression of mature markers
generation of 2-HG [8]: inhibit the generation of 2-HG

SMILES: N#CC1(NC(=O)C(F)(F)c2ccc(-c3ccsc3)c(NC(=O)Nc3cccc(C(F)(F)F)c3)c2)CC1 [Example 4, N-(1-cyanocyclopropyl)-2,2-difluoro-2-(4-(thiophen-3-yl)-3-(3-(3-(trifluoromethyl)phenyl)ureido)phenyl)acetamide]
pIC50 [1]: 7.25

SMILES: CC(C(=O)NC1CC1)c1ccc(-c2ccsc2)c(NC(=O)Nc2cccc(C(F)(F)F)c2)c1 (centres unmarked) [Example 14, N-cyclopropyl-2-(4-(thiophen-3-yl)-3-(3-(3-(trifluoromethyl)phenyl)ureido)phenyl) propanamide]
pIC50 [1]: 7.16

Further compounds by rising pIC50 [1], results first:

pIC50 [1]: 5.91
SMILES: CC(C)(C(=O)NC1CC1)c1ccc(-c2ccsc2)c(NC(=O)Nc2ccc3c(c2)C(=O)NC3)c1 [Example 18, N-cyclopropyl-2-methyl-2-(3-(3-(3-oxoisoindol-5-yl)ureido)-4-(thiophen-3-yl)phenyl) propanamide]

pIC50 [1]: 6.26
SMILES: O=C(Nc1cccc(C(F)(F)F)c1)Nc1cc(C(=O)NC2CC2)ccc1-c1ccsc1 [Example 23, N-cyclopropyl-4-(thiophen-3-yl)-3-(3-(3-(trifluoromethyl)phenyl)ureido)benzamide]

pIC50 [1]: 6.41
SMILES: O=C(Nc1ccc(F)c(C(F)(F)F)c1)Nc1cc(C(F)(F)C(=O)NC2CC2)ccc1-c1ccsc1 [Example 10, N-cyclopropyl-2,2-difluoro-2-(3-(3-(4-fluoro-3-(trifluoromethyl)phenyl)ureido)-4-(thiophen-3-yl)phenyl)acetamide]

pIC50 [1]: 6.51
SMILES: CC(NC1CC1)c1ccc(-c2ccsc2)c(NC(=O)Nc2cccc(C(F)(F)F)c2)c1 (centres unmarked) [Example 24, 1-(5-(1-(cyclopropylamino)ethyl)-2-(thiophen-3-yl)phenyl)-3-(3-(trifluoromethyl)phenyl)urea]

pIC50 [1]: 6.86
SMILES: O=C(Nc1cccc(C(F)(F)F)c1)Nc1cc(C2(C(=O)NC3CC3)CC2)ccc1-c1ccsc1 [Example 17, N-cyclopropyl-1-(4-(thiophen-3-yl)-3-(3-(3-(trifluoromethyl)phenyl)ureido)phenyl) cyclopropanecarboxamide]

pIC50 [1]: 6.98
SMILES: Cc1cc(-c2ccc(C(F)(F)C(=O)NC3CC3)cc2NC(=O)Nc2cccc(C(F)(F)F)c2)n(C)n1 [Example 13, N-cyclopropyl-2-(4-(1,3-dimethyl-1H-pyrazol-5-yl)-3-(3-(3-(trifluoromethyl)phenyl)ureido)phenyl)-2,2-difluoroacetamide]

pIC50 [1]: 7.08
SMILES: CC(NC(=O)C1CC1)c1ccc(-c2ccsc2)c(NC(=O)Nc2cccc(C(F)(F)F)c2)c1 (centres unmarked) [Example 27, N-(1-(4-(thiophen-3-yl)-3-(3-(3-(trifluoromethyl)phenyl)ureido)phenyl)ethyl) cyclopropanecarboxamide]

pIC50 [1]: 7.12
SMILES: O=C(Cc1ccc(-c2ccsc2)c(NC(=O)Nc2cccc(C(F)(F)F)c2)c1)NC1CC1 [Example 16]

pIC50 [1]: 7.18
SMILES: CC(C)(C(=O)NC1CC1)c1ccc(-c2ccsc2)c(NC(=O)Nc2cccc(C(F)(F)F)c2)c1 [Example 15, N-cyclopropyl-2-methyl-2-(4-(thiophen-3-yl)-3-(3-(3-(trifluoromethyl)phenyl)ureido)phenyl)propanamide]

pIC50 [1]: 7.21
SMILES: CC(C)NC(=O)C(F)(F)c1ccc(-c2ccsc2)c(NC(=O)Nc2cccc(C(F)(F)F)c2)c1 [Example 3]

AUC(0-inf) [6]: 844 ng·h/mL
Cmax [6]: 414 ng/mL
Tmax [6]: 0.33 h
half-life [6]: 2.34 h
half-life (in words) [6]: long half-life
metabolism in vivo (in words) [6]: very good metabolism in vivo
plasma concentration compared with AG-6780 at the same dose [6]: higher plasma concentration
pIC50 [1]: 7.26
SMILES: O=C(Nc1cccc(C(F)(F)F)c1)Nc1cc(CNC(=O)C2CC2)ccc1-c1ccsc1 [Example 28, N-(4-(thiophen-3-yl)-3-(3-(3-(trifluoromethyl)phenyl)ureido)benzyl) cyclopropanecarboxamide]

AUC(0-inf) [6]: 858 ng·h/mL
Cmax [6]: 495 ng/mL
Tmax [6]: 0.42 h
half-life [6]: 4.37 h
half-life (in words) [6]: long half-life
metabolism in vivo (in words) [6]: very good metabolism in vivo
plasma concentration compared with AG-6780 at the same dose [6]: higher plasma concentration
pIC50 [1]: 7.53
SMILES: O=C(Nc1cccc(C(F)(F)F)c1)Nc1cc(C(F)(F)C(=O)NC2COC2)ccc1-c1ccsc1 [Example 5, 2,2-Difluoro-N-(oxetan-3-yl)-2-(4-(thiophen-3-yl)-3-(3-(3-(trifluoromethyl)phenyl)ureido)phenyl)acetamide]

pIC50 [1]: 7.85
SMILES: O=C(Nc1cccc(C(F)(F)F)c1)Nc1cc(C(F)(F)C(=O)NC2CC2)ccc1-c1ccsc1 [Example 1, N-cyclopropyl-2,2-difluoro-2-(4-(thiophen-3-yl)-3-(3-(3-(trifluoromethyl)phenyl)ureido)phenyl)acetamide]
